These molecules were tested against T1, GST-tagged GDP-loaded KRAS G12V (amino acids 1-169) (Homo sapiens, UniProt P01116, G12V) (assay: KRAS G12V probe displacement assay (TR-FRET)). Settings: displacement of biotinylated probe 2 from GDP-loaded KRAS G12V.
T1 construct: GST-tagged GDP-loaded KRAS G12V (amino acids 1-169); made in house; host or cells: E. coli
Type: binding
Protocol: KRAS WT and KRAS G12V Probe Displacement Assay
This assay was used to identify compounds which bind to GDP-loaded KRAS protein and are able to displace a biotinylated probe occupying the KRAS binding site. GST-tagged GDP-loaded WT KRAS (amino acids 1-169) and GST-tagged GDP-loaded KRAS G12V (amino acids 1-169) were expressed in E. coli and purified in house. All protein and reaction solutions were prepared in assay buffer containing 50 mM HEPES pH7.5, 50 mM NaCl, 1 mM MgCl2, 1 mM TCEP, 0.01% BSA, and 0.008% Brij-35. Purified WT KRAS (3 nM final concentration) or KRAS G12V protein (2 nM final concentration) was incubated with a 3-fold serially diluted compound in the assay plate (384 well microplate, black, Corning). Plates are incubated at 24° C. for 1 hr. Following the incubation, biotinylated probe 1 (60 nM final assay concentration) for WT KRAS and biotinylated probe 2 (2.5 nM final assay concentration) for KRAS G12V was added to the assay plate, respectively. After 1 hr incubation at 24° C., Mab Anti-GST-Tb cryptate (Cisbio) and Streptavidin-XL665 (Cisbio) were added and further incubated at 24° C. for another 1 hr. The TR-FRET signals (ex337 nm, em665 nm/620 nm) were read on BMG PHERAstar FSX instrument. The inhibition percentage of KRAS protein binding with biotinylated probe in presence of increasing concentrations of compounds was calculated based on the ratio of fluorescence at 665 nm to that at 620 nm. The IC50 value of each compound was calculated from fitting the data to the four-parameter logistic model by Dotmatics.

T1 sequence (P01116 1-169 isoform P01116-2 G12V): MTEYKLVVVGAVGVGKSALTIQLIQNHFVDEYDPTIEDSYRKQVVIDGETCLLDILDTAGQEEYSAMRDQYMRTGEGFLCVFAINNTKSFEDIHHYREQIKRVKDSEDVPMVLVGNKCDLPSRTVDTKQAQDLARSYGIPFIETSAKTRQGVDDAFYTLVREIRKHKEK

SMILES	IC50
Nc1nc2c(-c3c(C(F)(F)F)cc4c(N5CC[C@@H](CO)C5)nc(OC[C@@]56CCCN5C[C@H](F)C6)nc4c3F)ccc(F)c2s1 [Example 65, ((3R)-1-(7-(2-amino-7-fluorobenzo[d]thiazol-4-yl)-8-fluoro-2-(((2R,7aS)-2-fluorotetrahydro-1H-pyrrolizin-7a(5H)-yl)methoxy)-6-(trifluoromethyl)quinazolin-4-yl)pyrrolidin-3-yl)methanol]	4.1 nM
N#CCC1CCN(c2nc(OC[C@@]34CCCN3C[C@H](F)C4)nc3c(F)c(-c4ccc(F)c5sc(N)nc45)c(C(F)(F)F)cc23)C1 (stereo partly drawn) [Example 61, 2-(1-(7-(2-amino-7-fluorobenzo[d]thiazol-4-yl)-8-fluoro-2-(((2R,7aS)-2-fluorotetrahydro-1H-pyrrolizin-7a(5H)-yl)methoxy)-6-(trifluoromethyl)quinazolin-4-yl)pyrrolidin-3-yl)acetonitrile]	14 nM
Nc1nc2c(-c3c(Cl)cc4c(N[C@H]5[C@@H]6COC[C@@H]65)nc(OC[C@@]56CCCN5C[C@H](F)C6)nc4c3F)ccc(F)c2s1 [Example 29, 4-(4-(((1R,5S,6r)-3-oxabicyclo[3.1.0]hexan-6-yl)amino)-6-chloro-8-fluoro-2-(((2R,7aS)-2-fluorotetrahydro-1H-pyrrolizin-7a(5H)-yl)methoxy)quinazolin-7-yl)-7-fluorobenzo[d]thiazol-2-amine]	15 nM
N#CCC1CCN(c2nc(OC[C@@]34CCCN3C[C@H](F)C4)nc3c(F)c(-c4cc(N)cc(Cl)c4C(F)(F)F)ncc23)CC1 [Example 125, 2-(1-(7-(5-amino-3-chloro-2-(trifluoromethyl)phenyl)-8-fluoro-2-(((2R,7aS)-2-fluorotetrahydro-1H-pyrrolizin-7a(5H)-yl)methoxy)pyrido[4,3-d]pyrimidin-4-yl)piperidin-4-yl)acetonitrile]	81 nM
Nc1nc2c(-c3c(C(F)(F)F)cc4c(N5CCC(F)(F)C5)nc(OC[C@@]56CCCN5C[C@H](F)C6)nc4c3F)ccc(F)c2s1 [Example 53, 4-(4-(3,3-difluoropyrrolidin-1-yl)-8-fluoro-2-(((2R,7aS)-2-fluorotetrahydro-1H-pyrrolizin-7a(5H)-yl)methoxy)-6-(trifluoromethyl)quinazolin-7-yl)-7-fluorobenzo[d]thiazol-2-amine]	12 nM
Nc1nc2c(-c3c(C(F)(F)F)cc4c(NC5C6CCCC65)nc(OC[C@@]56CCCN5C[C@H](F)C6)nc4c3F)ccc(F)c2s1 (stereo partly drawn) [Example 8, 4-(4-(bicyclo[3.1.0]hexan-6-ylamino)-8-fluoro-2-(((2R,7aS)-2-fluorotetrahydro-1H-pyrrolizin-7a(5H)-yl)methoxy)-6-(trifluoromethyl)quinazolin-7-yl)-7-fluorobenzo[d]thiazol-2-amine]	43 nM
Nc1nc2c(-c3c(C(F)(F)F)cc4c(N[C@H]5C[C@@H](F)C5)nc(OC[C@@]56CCCN5C[C@H](F)C6)nc4c3F)ccc(F)c2s1 [Example 15, 7-fluoro-4-(8-fluoro-4-(((cis)-3-fluorocyclobutyl)amino)-2-(((2R,7aS)-2-fluorotetrahydro-1H-pyrrolizin-7a(5H)-yl)methoxy)-6-(trifluoromethyl)quinazolin-7-yl)benzo[d]thiazol-2-amine]	17 nM
Nc1nc2c(-c3c(C(F)(F)F)cc4c(N5CCC6(CCNC(=O)O6)CC5)nc(OC[C@@]56CCCN5C[C@H](F)C6)nc4c3F)ccc(F)c2s1 [Example 99, 9-(7-(2-amino-7-fluorobenzo[d]thiazol-4-yl)-8-fluoro-2-(((2R,7aS)-2-fluorotetrahydro-1H-pyrrolizin-7a(5H)-yl)methoxy)-6-(trifluoromethyl)quinazolin-4-yl)-1-oxa-3,9-diazaspiro[5.5]undecan-2-one]	2.8 nM
N#CCN1CC2(CCN(c3nc(OC[C@@]45CCCN4C[C@H](F)C5)nc4c(F)c(-c5ccc(F)c6sc(N)nc56)c(C(F)(F)F)cc34)CC2)OC1=O [Example 89, 2-(8-(7-(2-amino-7-fluorobenzo[d]thiazol-4-yl)-8-fluoro-2-(((2R,7aS)-2-fluorotetrahydro-1H-pyrrolizin-7a(5H)-yl)methoxy)-6-(trifluoromethyl)quinazolin-4-yl)-2-oxo-1-oxa-3,8-diazaspiro[4.5]decan-3-yl)acetonitrile]	2.4 nM
Nc1nc2c(-c3c(C(F)(F)F)cc4c(N5CCCCCC5)nc(OC[C@@]56CCCN5C[C@H](F)C6)nc4c3F)ccc(F)c2s1 [Example 81, 4-(4-(azepan-1-yl)-8-fluoro-2-(((2R,7aS)-2-fluorotetrahydro-1H-pyrrolizin-7a(5H)-yl)methoxy)-6-(trifluoromethyl)quinazolin-7-yl)-7-fluorobenzo[d]thiazol-2-amine]	4.9 nM
N#CC1CCN(c2nc(OC[C@@]34CCCN3C[C@H](F)C4)nc3c(F)c(-c4cc(N)cc(Cl)c4C(F)(F)F)ncc23)CC1F (stereo partly drawn) [Example 122, 1-(7-(5-amino-3-chloro-2-(trifluoromethyl)phenyl)-8-fluoro-2-(((2R,7aS)-2-fluorotetrahydro-1H-pyrrolizin-7a(5H)-yl)methoxy)pyrido[4,3-d]pyrimidin-4-yl)-3-fluoropiperidine-4-carbonitrile]	28 nM
Nc1cc(Cl)c(C(F)(F)F)c(-c2ncc3c(NC45CC(C4)C5)nc(OC[C@@]45CCCN4C[C@H](F)C5)nc3c2F)c1 [Example 112, 7-(5-amino-3-chloro-2-(trifluoromethyl)phenyl)-N-(bicyclo [1.1.1]pentan-1-yl)-8-fluoro-2-(((2R,7aS)-2-fluorotetrahydro-1H-pyrrolizin-7a(5H)-yl)methoxy) pyrido[4,3-d]pyrimidin-4-amine]	19 nM
C[C@]1(O)CCCN(c2nc(OC[C@@]34CCCN3C[C@H](F)C4)nc3c(F)c(-c4ccc(F)c5sc(N)nc45)c(C(F)(F)F)cc23)C1 [Example 79, (3S)-1-(7-(2-amino-7-fluorobenzo[d]thiazol-4-yl)-8-fluoro-2-(((2R,7aS)-2-fluorotetrahydro-1H-pyrrolizin-7a(5H)-yl)methoxy)-6-(trifluoromethyl)quinazolin-4-yl)-3-methylpiperidin-3-ol]	28 nM
Cc1cc(N)nc(-c2c(Cl)cc3c(N4CCC(C#N)CC4)nc(OC[C@@]45CCCN4C[C@H](F)C5)nc3c2F)c1C(F)(F)F [Example 103, 1-(7-(6-amino-4-methyl-3-(trifluoromethyl)pyridin-2-yl)-6-chloro-8-fluoro-2-(((2R,7aS)-2-fluorotetrahydro-1H-pyrrolizin-7a(5H)-yl)methoxy)quinazolin-4-yl)piperidine-4-carbonitrile]	11 nM
Nc1nc2c(-c3c(Cl)cc4c(NC5CC5)nc(OC[C@@]56CCCN5C[C@H](F)C6)nc4c3F)ccc(F)c2s1 [Example 28, 4-(6-chloro-4-(cyclopropylamino)-8-fluoro-2-(((2R,7aS)-2-fluorotetrahydro-1H-pyrrolizin-7a(5H)-yl)methoxy)quinazolin-7-yl)-7-fluorobenzo[d]thiazol-2-amine]	3.8 nM
Nc1nc2c(-c3c(C(F)(F)F)cc4c(NC56CC(C5)C6)nc(OC[C@@]56CCCN5C[C@H](F)C6)nc4c3F)ccc(F)c2s1 [Example 24, 4-(4-(bicyclo [1.1.1]pentan-1-ylamino)-8-fluoro-2-(((2R,7aS)-2-fluorotetrahydro-1H-pyrrolizin-7a(5H)-yl)methoxy)-6-(trifluoromethyl)quinazolin-7-yl)-7-fluorobenzo[d]thiazol-2-amine]	24 nM
N#CC1CCN(c2nc(OC[C@@]34CCCN3C[C@H](F)C4)nc3c(F)c(-c4cc(N)cc(Cl)c4C(F)(F)F)ncc23)CC1 [Example 121, 1-(7-(5-amino-3-chloro-2-(trifluoromethyl)phenyl)-8-fluoro-2-(((2R,7aS)-2-fluorotetrahydro-1H-pyrrolizin-7a(5H)-yl)methoxy)pyrido[4,3-d]pyrimidin-4-yl)piperidine-4-carbonitrile]	13 nM
CC1(C#N)CCN(c2nc(OC[C@@]34CCCN3C[C@H](F)C4)nc3c(F)c(-c4ccc(F)c5sc(N)nc45)c(C(F)(F)F)cc23)CC1 [Example 69, 1-(7-(2-amino-7-fluorobenzo[d]thiazol-4-yl)-8-fluoro-2-(((2R,7aS)-2-fluorotetrahydro-1H-pyrrolizin-7a(5H)-yl)methoxy)-6-(trifluoromethyl)quinazolin-4-yl)-4-methylpiperidine-4-carbonitrile]	17 nM
CC(=O)N1C[C@@H]2[C@H](C1)[C@H]2Nc1nc(OC[C@@]23CCCN2C[C@H](F)C3)nc2c(F)c(-c3ccc(F)c4sc(N)nc34)c(Cl)cc12 [Example 30, 1-((1R,5S,6s)-6-((7-(2-amino-7-fluorobenzo[d]thiazol-4-yl)-6-chloro-8-fluoro-2-(((2R,7aS)-2-fluorotetrahydro-1H-pyrrolizin-7a(5H)-yl)methoxy)quinazolin-4-yl)amino)-3-azabicyclo[3.1.0]hexan-3-yl)ethan-1-one]	3.5 nM

Reference: patent US20250101028A1, “HETEROCYCLIC COMPOUNDS, COMPOSITIONS THEREOF, AND METHODS OF TREATMENT THEREWITH” (BeiGene, Ltd., priority 2022, published 2025)
